Assay results published in patent US4310521A, “Aspirin-isopropylantipyrine” (Toho Pharmaceutical Co., Ltd., priority 1979, dated 1982).
Entries after “also recorded” stand apart in the source; their conditions may differ. Like-named read-outs stand apart in the source and are kept apart here.

Assays:
[1] = system: mice (acetic acid writhings); assay: Inhibition of acetic acid-induced writhing in mice (analgetic activity); assay type: in vivo; details: for No. of Writhings: 30 minutes before acetic acid i.p., control 32.2 ± 3.7; for Inhibition (%): writhing, based on the control group
Method: The number of writhings that occurred when mice were administered an acetic acid solution intraperitoneally were counted, and the rate of inhibition based on the control group was calculated. The test compounds were administered to the mice 30 minutes before the acetic acid solution was administered.

[2] = Acute toxicity (LD 50); assay type: in vivo; details: mouse, in vivo, male ddy mice
Method: (§1) The acute toxicity of AIA was tested using male mice (ddy, body weight 18-25 g), and the dose at which 50% of the animal population were killed (LD 50) was determined.

[3] = system: stomach, glandular portion; assay: Gastric ulcerogenic activity, adjuvant-administered rats; assay type: in vivo; details: oral, 200 mg/kg per day, 21 days, control 0.05 ± 0.048, *P < 0.05
Method: On the other hand, after administering an adjuvant, the rats were orally administered […] of the test compounds per day for 21 days. On the 21st day the stomachs were removed, and the lengths of the lesions in the glandular portion were measured.

[4] = background statement on aspirin; cited from earlier work
[5] = system: stomach, glandular portion; assay: Gastric ulcerogenic activity, pylorus-ligated rats; assay type: in vivo; details: for Length of Stomach Lesion (cm): pylorus-ligated rats, oral, 100 mg/kg, 7 hours
Method: Immediately after ligation of the pylorus of fasted rats, the test compounds were administered orally. The stomachs were removed 7 hours later, and the lengths of the lesions in the glandular portion were measured.

[6] = system: carrageenin edema; assay: Carrageenin edema of hind paw (anti-inflammatory activity); assay type: in vivo; details: rats, s.c., 50 and 100 mg/kg, FIG. 2, in words
Method: Rats were subcutaneously administered the test compounds, and 30 minutes later a carrageenin solution was administered subcutaneously to the foot pad of the rats. The volume of the hind paw was measured at prescribed intervals after the administration of the carrageenin, and the rate of increase in the volume of the paw was calculated and designated as the rate of swelling (%).

[7] = Hygroscopicity and stability; assay type: physicochemical; details: in words, no test described; listed as formula (I)
[8] = system: excised intestinal tract of rats; assay: Inhibition of induced contraction of excised intestinal tract; details: 100 μg/ml
[9] = system: male mice; assay: Acute toxicity (LD 50); assay type: in vivo; details: male ddy mice, in words
Method: as §1

[10] = system: mouse tail (pain threshold, heat); assay: Prolongation time of pain threshold of mouse tail, D'Amour-Smith Method (analgetic activity); assay type: in vivo; details: mice, s.c., 200 mg/kg AIA vs 200 mg/kg aspirin, FIG. 1
Method: Further, the prolongation time of pain threshold of mouse tail was determined in accordance with the D'Amour-Smith Method (J. Pharmacol. Exp. Ther., 72, 74 (1941)). After the subcutaneous administration of the test compounds to mice, the tails of mice were exposed to heat and the prolongation time of pain threshold was determined.

[11] = Solubility; assay type: physicochemical
[12] = system: adjuvant arthritis; assay: Adjuvant arthritis (anti-inflammatory activity); assay type: in vivo; details: rats, 200 mg/kg per day, 21 days, FIG. 3, in words
Method: On the other hand, an adjuvant was administered subcutaneously to only the foot pad of the left hind paw, and 200 mg/kg per day of the test compounds were administered daily for 21 days. The rate of increase in the volume of the both hind paws were measured daily and designated as the rate of swelling (%).

[13] = system: rats (E. coli pyrogen); assay: Antipyretic activity, E. coli suspension as pyrogen; assay type: in vivo; details: s.c., 100 mg/kg, 2 hours after pyrogen
Method: Rats received a sterilized E. coli suspension (1 platinum loop/2 ml saline, 0.5 ml/100 g, i.v.) as a pyrogen, and 2 hours later the test compounds were injected subcutaneously. The temperature was taken at hourly intervals before and after injection of the test compounds.

[14] = ip, intraperitoneal, read-out: LD 50 (g/kg), Intraperitoneal administration
[15] = sc, subcutaneous, read-out: LD 50 (g/kg), Subcutaneous administration
[16] = oral, read-out: LD 50 (g/kg), Oral administration

With `CC(=O)Oc1ccccc1C(=O)O` [Aspirin, acetylsalicylic acid] the “No. of Writhings” value ([1]; 50 mg/kg) was 17.2 ± 4.0, the “Inhibition (%)” value ([1]; 50 mg/kg) was 46.6% and the “No. of Writhings” value ([1]; 100 mg/kg) was 15.3 ± 2.4. The “Inhibition (%)” value ([1]; 100 mg/kg) was 52.5%, the LD50 [2, 14] was 0.76 ± 0.09 g/kg and the LD50 [2, 15] was 1.02 ± 0.11 g/kg. The LD50 [2, 16] was 11.6 ± 0.07 g/kg, the “Length of Stomach Lesion (cm)” value [3] was 3.29 ± 1.37 cm and the Hygroscopicity [4] was “hygroscopic”. For the same compound, the “Length of Stomach Lesion (cm)” value [5] was 4.13 ± 1.24 cm.

For `CC(=O)Oc1ccccc1C(=O)NCc1c(C(C)C)c(=O)n(-c2ccccc2)n1C` [AIA, N-3'a-propylphenazonyl-2-acetoxybenzamide], the “Inhibition of carrageenin edema formation” value [6] was “has the activity of inhibiting carrageenin edema formation”, the “No. of Writhings” value ([1]; 50 mg/kg) was 22.1 ± 3.3 and the “Inhibition (%)” value ([1]; 50 mg/kg) was 31.4%. The “No. of Writhings” value ([1]; 100 mg/kg) was 18.3 ± 1.7, the “Inhibition (%)” value ([1]; 100 mg/kg) was 43.2% and the “Analgetic activity (writhing) compared with aspirin” value ([1]; in words) was “analgetic activity comparable to that of aspirin”. For the same compound, the Hygroscopicity [7] was “free of hygroscopicity; also recorded: not hygroscopic”, the Stability [7] was “stable; also recorded: good stability” and the “Inhibition of contraction induced by acetylcholine” value ([8]; acetylcholine) was “inhibit the contraction”. The “Inhibition of contraction induced by barium chloride” value ([8]; barium chloride) was “inhibit the contraction”, the “Inhibition of contraction induced by histamine” value ([8]; histamine) was “inhibit the contraction” and the LD50 [2, 14] was 3.67 ± 0.07 g/kg. For the same compound, the LD50 [2, 15] was > 5 g/kg, the LD50 [2, 16] was > 5 g/kg and the “Acute toxicity compared with aspirin” value [9] was “extremely low as compared with that of aspirin”. For the same compound, the “Analgetic activity (prolongation of pain threshold) compared with aspirin” value [10] was “stronger analgetic activity than the group administered 200 mg/kg of aspirin”, the Solubility in acetone ([11]; acetone) was “dissolves readily” and the Solubility in chloroform ([11]; chloroform) was “dissolves fairly well”. The Solubility in ethanol ([11]; ethanol) was “dissolves readily”, the Solubility in methanol ([11]; methanol) was “dissolves readily” and the Solubility in water ([11]; water) was “practically insoluble”. The “Inhibitory effect on adjuvant arthritis compared with aspirin” value [12] was “inhibitory effect on adjuvant arthritis comparable to that of aspirin”, the “Length of Stomach Lesion (cm)” value [3] was 0.04 ± 0.031 cm and the “Length of Stomach Lesion (cm)” value [5] was 0.11 ± 0.09 cm. For the same compound, the “Injury to the stomach (Tables 2A and 2B)” value ([5]; rats, in words, Tables 2A and 2B) was “little or no injury is caused to the stomach” and the Antipyretic activity [13] was “demonstrated antipyretic activity”.
